test system: native tau aggregates; experiment: TAU radioligand in vitro displacement assay ([3H]T808 autoradiography on human AD brain sections); type: binding; settings: compound 10 nM, radioligand [3H]T808 10 nM, 50 mM Tris pH 7.4, room temperature, 30 min
Experimental: TAU Radioligand-In-Vitro Displacement Assay
This in vitro binding assay assesses the affinity of compounds for native tau aggregates. The compounds are co-incubated with the well-established tau specific radioligand [^3H]T808 and the compound's displacement potency of [^3H]T808 binding is determined by in vitro autoradiography using human Alzheimer's disease (AD) brain sections (FIG. 1).
AD human brains are purchased from Banner Sun Health Research Institute (Sun City, Ariz., USA). Pathological diagnosis of AD is made according to standard NIA-Reagan Institute criteria based on neuropathological data. The radioligand [^3H]T808 was synthesized in-house ([^3H]-2-[4-(2-Fluoro-ethyl)-piperidin-1-yl]-benzo[4,5]imidazo[1,2-a]pyrimidine, radiochemical purity 99.0%). As a reference cold T808 is used (2-[4-(2-Fluoro-ethyl)-piperidin-1-yl]-benzo[4,5]imidazo[1,2-a]pyrimidine). For the autoradiography FujiFilm Imaging Plates (BAS-IP TR 2025) are exposed to the sections and read with a FujiFilm IP reader (BAS-5000).
Ten μm thick human AD brain sections are generated with a cryostat (Leica CM3050) at −17° C. chamber temperature and −15° C. object temperature. Sections are transferred to Histobond+microscope slides (Marienfeld Laboratory Glasware). After drying for 3 hours at room temperature the sections are stored at −20° C. The sections are incubated with the radioligand (10 nM) and the respective cold compound (at various concentrations) in 50 mM Tris buffer, pH 7.4 at room temperature for 30 min. After washing 3×10 min at 4° C. in 50 mM Tris buffer, pH 7.4 and 3 quick dips in H2O dist. at 4° C. the sections are dried at 4° C. for 3 h. The sections are placed in a FujiFilm Cassette (BAS 2025), exposed with an Imaging Plate for five days and afterwards scanned with a resolution of […].
The signal intensity (Dens—PSL/mm2) in the region of interest (ROI) of the autoradiogram is quantified with the software MCID analysis (version 7.0, Imaging Research Inc.). The specific binding (SB) of [^3H]T808 binding in absence or in presence of a compound is calculated by subtracting the non-specific binding signal in the white matter, thus yielding SB[3H]T808 only and SBcompund. The % displacement by the various compounds is calculated as following: % displacement=100−(SBcompund/SB[3H]T808 only)*100.
In each experiment cold T808 is used as a positive internal control. Co-incubation of equimolar amounts of hot and cold T808 is expected to reduce specific binding by approximately 50%.

| Compound | % displacement of [3H]T808 (10 nM) at 10 nM [%] |
| --- | --- |
| CN(C)c1ccc(-c2cn3ccc(N(C)C)nc3n2)cc1 [Example 46, 2-[4-(Dimethylamino)phenyl]-N,N-dimethylimidazo[1,2-a]pyrimidin-7-amine] | 43 |
| COc1cccc(-c2cn3ccc(N4CCCC4)nc3n2)c1 [Example 47, 2-(3-Methoxyphenyl)-7-pyrrolidin-1-ylimidazo[1,2-a]pyrimidine] | 20 |
| Cc1cccc(-c2cn3ccc(N4CCCC4)nc3n2)c1 [Example 48, 2-(3-Methylphenyl)-7-pyrrolidin-1-ylimidazo[1,2-a]pyrimidine] | 23 |
| COc1ccc(-c2cn3ccc(N4CCCCC4)nc3n2)cc1 [Example 49, 2-(4-Methoxyphenyl)-7-piperidin-1-ylimidazo[1,2-a]pyrimidine] | 17 |
| COc1cccc(-c2cn3ccc(N4CCCCC4)nc3n2)c1 [Example 50, 2-(3-Methoxyphenyl)-7-piperidin-1-ylimidazo[1,2-a]pyrimidine] | 14 |
| Cc1ccc(-c2cn3ccc(N4CCCCC4)nc3n2)cc1 [Example 51, 2-(4-Methylphenyl)-7-piperidin-1-ylimidazo[1,2-a]pyrimidine] | 8 |
| Cc1cccc(-c2cn3ccc(N4CCCCC4)nc3n2)c1 [Example 52, 2-(3-Methylphenyl)-7-piperidin-1-ylimidazo[1,2-a]pyrimidine] | 14 |
| COc1ccc(-c2cn3ccc(N4CCCCC4)nc3n2)cc1OC [Example 53, 2-(3,4-Dimethoxyphenyl)-7-piperidin-1-ylimidazo[1,2-a]pyrimidine] | 6 |
| FCCC1CCN(c2ccn3cc(-c4ccccc4)nc3n2)CC1 [Example 54, 7-[4-(2-Fluoroethyl)piperidin-1-yl]-2-phenylimidazo[1,2-a]pyrimidine] | 14 |
| COc1cccc(-c2cn3ccc(N4CCC(CCF)CC4)nc3n2)c1 [Example 55, 7-[4-(2-Fluoroethyl)piperidin-1-yl]-2-(3-methoxyphenyl)imidazo[1,2-a]pyrimidine] | 10 |
| COc1ccc(-c2cn3ccc(N4CCC(CCF)CC4)nc3n2)cc1 [Example 56, 7-[4-(2-Fluoroethyl)piperidin-1-yl]-2-(4-methoxyphenyl)imidazo[1,2-a]pyrimidine] | 9 |
| FCCC1CCN(c2ccn3cc(-c4ccc5c(c4)OCO5)nc3n2)CC1 [Example 57, 2-(1,3-Benzodioxol-5-yl)-7-[4-(2-fluoroethyl)piperidin-1-yl]imidazo[1,2-a]pyrimidine] | 9 |
| FCCC1CCN(c2ccn3cc(-c4ccc5c(c4)OCCO5)nc3n2)CC1 [Example 58, 2-(2,3-Dihydro-1,4-benzodioxin-6-yl)-7-[4-(2-fluoroethyl)piperidin-1-yl]imidazo[1,2-a]pyrimidine] | 18 |
| Cc1cccc(-c2cn3ccc(N4CCC(CCF)CC4)nc3n2)c1 [Example 59, 7-[4-(2-Fluoroethyl)piperidin-1-yl]-2-(3-methylphenyl)imidazo[1,2-a]pyrimidine] | 10 |
| Cc1ccc(-c2cn3ccc(N4CCC(CCF)CC4)nc3n2)cc1 [Example 60, 7-[4-(2-Fluoroethyl)piperidin-1-yl]-2-(4-methylphenyl)imidazo[1,2-a]pyrimidine] | 15 |
| FCCC1CCN(c2ccn3cc(-c4ccc(N5CCOCC5)cc4)nc3n2)CC1 [Example 61, 4-[4-[7-[4-(2-Fluoroethyl)piperidin-1-yl]imidazo[1,2-a]pyrimidin-2-yl]phenyl]morpholine] | 10 |
| CNc1ccn2cc(-c3cccc(C)c3)nc2n1 [Example 62, N-Methyl-2-(3-methylphenyl)imidazo[1,2-a]pyrimidin-7-amine] | 48 |

| Compound | % displacement of [3H]T808 (10 nM) at 10 nM [%] |
| --- | --- |
| COc1ccc(-c2cn3ccc(N(C)CCOCCF)nc3n2)cc1 [Example 64, N-[2-(2-Fluoroethoxy)ethyl]-2-(4-methoxyphenyl)-N-methylimidazo[1,2-a]pyrimidin-7-amine] | 15 |
| COc1ccc(-c2cn3ccc(N4CC5(CCC5)C4)nc3n2)cc1 [Example 65, 7-(2-Azaspiro[3.3]heptan-2-yl)-2-(4-methoxyphenyl)imidazo[1,2-a]pyrimidine] | 11 |
| CCN(C)c1ccn2cc(-c3ccc(OC)cc3)nc2n1 [Example 66, N-Ethyl-2-(4-methoxyphenyl)-N-methylimidazo[1,2-a]pyrimidin-7-amine] | 34 |
| CCN(CC)c1ccn2cc(-c3ccc(OC)cc3)nc2n1 [Example 67, N,N-Diethyl-2-(4-methoxyphenyl)imidazo[1,2-a]pyrimidin-7-amine] | 19 |
| Cc1cccc(-c2cn3ccc(N(C)CCOCCF)nc3n2)c1 [Example 68, N-[2-(2-Fluoroethoxy)ethyl]-N-methyl-2-(3-methylphenyl)imidazo[1,2-a]pyrimidin-7-amine] | 14 |
| COc1ccc(-c2cn3ccc(N4CCC4)nc3n2)cc1 [Example 69, 7-(Azetidin-1-yl)-2-(4-methoxyphenyl)imidazo[1,2-a]pyrimidine] | 40 |
| COc1ccc(-c2cn3ccc(N4CC(F)C4)nc3n2)cc1 [Example 70, 7-(3-Fluoroazetidin-1-yl)-2-(4-methoxyphenyl)imidazo[1,2-a]pyrimidine] | 25 |
| FC1CN(c2ccn3cc(-c4ccccc4)nc3n2)C1 [Example 71, 7-(3-Fluoroazetidin-1-yl)-2-phenylimidazo[1,2-a]pyrimidine] | 18 |
| Cc1cccc(-c2cn3ccc(N4CC(F)C4)nc3n2)c1 [Example 72, 7-(3-Fluoroazetidin-1-yl)-2-(3-methylphenyl)imidazo[1,2-a]pyrimidine] | 18 |
| FC1CCN(c2ccn3cc(-c4cc5ccccc5o4)nc3n2)CC1 [Example 73, 2-(1-Benzofuran-2-yl)-7-(4-fluoropiperidin-1-yl)imidazo[1,2-a]pyrimidine] | 19 |
| CN(C)c1ccc(-c2cn3ccc(N4CCOCC4)nc3n2)cc1 [Example 74, N,N-Dimethyl-4-(7-morpholin-4-ylimidazo[1,2-a]pyrimidin-2-yl)aniline] | 16 |
| FC1CCN(c2ccn3cc(-c4cc5ccccc5s4)nc3n2)CC1 [Example 75, 2-(1-Benzothiophen-2-yl)-7-(4-fluoropiperidin-1-yl)imidazo[1,2-a]pyrimidine] | 18 |
| COc1ccc(-c2cn3ccc(NC4CC4)nc3n2)cc1 [Example 76, N-Cyclopropyl-2-(4-methoxyphenyl)imidazo[1,2-a]pyrimidin-7-amine] | 43 |
| COc1ccc(-c2cn3ccc(NC(C)C)nc3n2)cc1 [Example 77, N-Isopropyl-2-(4-methoxy-phenyl)-imidazo[1,2-a]pyrimidin-7-amine] | 15 |
| COc1ccc(-c2cn3ccc(NCC(F)(F)F)nc3n2)cc1 [Example 78, 2-(4-Methoxyphenyl)-N-(2,2,2-trifluoroethyl)imidazo[1,2-a]pyrimidin-7-amine] | 8 |
| FC1CCN(c2ccn3cc(-c4nc5ccccc5s4)nc3n2)CC1 [Example 79, 2-[7-(4-Fluoropiperidin-1-yl)imidazo[1,2-a]pyrimidin-2-yl]-1,3-benzothiazole] | 12 |
| Oc1ccc(-c2cn3ccc(N4CCC4)nc3n2)cc1 [Example 80, 4-[7-(Azetidin-1-yl)imidazo[1,2-a]pyrimidin-2-yl]phenol] | 25 |

same assay, conditions: compound 1 uM, radioligand [3H]T808 10 nM, 50 mM Tris pH 7.4, room temperature, 30 min

| Compound | % displacement of [3H]T808 (10 nM) at 1 uM [%] |
| --- | --- |
| FC1CCN(c2ccn3cc(-c4ccsc4)nc3n2)CC1 [Example 63, 7-(4-Fluoropiperidin-1-yl)-2-thiophen-3-ylimidazo[1,2-a]pyrimidine] | 70 |

Reference: patent publication US9801961B2, “2-phenylimidazo[1,2-a]pyrimidines as imaging agents” (Hoffmann-La Roche Inc., priority 2013, dated 2017)
